In US5225543A, “Receptors method for purification of G protein-linked” (priority 1991, dated 1993):
One block for each substance: values may come before it. Where no end group is shown, it is not given here. The star is where a group is joined. 125I = [125I]*

Key:
[1] = test system: somatostatin receptor (GH4 C1 membranes); assay: Binding, CHAPS solubilization and recovery of SRIF receptor:[^125 I]Tyr11-S14 complex (FIG. 1, Table 1); design: species or system rat; details: for CPM recovered, B. Nonspecific: 10^-6 M cold S14; for CPM recovered, A. Total: without cold S14
Experimental: FIG. 1 illustrates separation of receptor-bound and free [^125 I]Tyr11-S14. Radioligand is bound to GH4 C1 membranes as described in "Materials and Methods". The binding incubations contain 2 mg membrane protein and 6×10^6 cpm of radioligand in 8 ml. A non-specific binding sample is identical except for the addition of 1 uM cold S14. Initial cpm bound were 1.43×10^6 (total) and 0.65×10^6 (non-specific). After the binding step, membranes are resuspended at 1 […] in the presence of 1% CHAPS detergent in a buffer containing 25 mM Tris (pH 8), 10% glycerol and 0.2 mM CaCl2 (solubilization buffer). A protease inhibitor cocktail ("100×4 pase" described in "Materials and Methods") is also added as 1% of final volume. Solubilization is allowed to proceed for 1 hour on ice, and then the mixture is centrifuged for 30 minutes at 100,000×g. CPM in the 100,000×g supernatant were 0.61×10^6 (total) and 0.29×10^6 (non-specific). Free [^125 I]Tyr11-S14 is added to the non-specific binding sample to give equal cpm in the two samples. Then 0.25 ml aliquots of each supernatant ([…]) are loaded onto 0.8×13 cm columns of Sephadex G-50. The columns are eluted at a flow rate of 0.7 ml/min with solubilization buffer + 1% BSA. 0.18 ml fractions are collected and counted for radioactivity.
0.18 ml samples are collected. […] The mixture is held on ice for 15 minutes.
[^125 I]Tyr11-S14 is bound to GH4 C1 membranes as described above ("Methods: Receptor Binding Methods, 4."), except that these binding assays contain 2 mg membrane protein in 8 ml (0.25 mg membrane protein/ml). Radioligand is […]. A non-specific binding sample is identical except for the addition of 1 uM cold S14. Initial cpm bound is 1.43×10^6 (total) and 0.65×10^6 (nonspecific). After the binding step, membranes are solubilized in solubilization buffer containing 0.2 mM CaCl2 and 1% CHAPS ("Methods: Membrane Solubilization"). CPM in the 100,000×g supernatants are 0.61×10^6 (total) and 0.29×10^6 (nonspecific). Free [^125 I]Tyr11-S14 is added to the nonspecific binding sample to give equal cpm in the two samples. Then 0.25 ml aliquots of each supernatant (75-80,000 cpm) are loaded onto 0.8×13 cm columns of Sephadex G-50. The columns are eluted as described in "Methods: Assay of Solubilized Receptors, 1." and the fractions counted for radioactivity.
A peak of high MW material eluting in the column void volume (peak I; 34% of total cpm) contain specifically bound radioactivity. […] Peak II in FIG. 1 represents free [^125 I]Tyr11-S14, and is the major peak in the nonspecific binding sample. In FIG. 1 it is important to note that just before applying samples to the columns, free [^125 I]Tyr11-S14 is added to the non-specific binding sample to equalize the cpm in the two samples. […] The GFB/PEI method is used in subsequent experiments.
0.25 ml samples containing solubilized R:L complex, from the preparation described in FIG. 1 are separated from free radioligand either by: (1) chromatography on Sephadex G-50 (see FIG. 1), (2) Precipitation with polyethyleneglycol+bovine gamma globulin with collection of the precipitates on GFB filters or (3) adsorption on polyethyleneimine-coated,GFB filters (for methods 2 and 3 see "Methods: Assay of Solubilized Receptors, 2 and 3"). Radioactivity recovered in peak I (Method 1) or on filters (Methods 2 and 3) is compared in the Table.

[2] = biological target: T1, SRIF receptor (GH4 C1 membranes) (Rattus norvegicus, UniProt P30680); assay: Scatchard analysis of [^125 I]-labelled ligand binding to GH4 C1 membranes (FIG. 5); details: read-out: dissociation constant (KD)
T1 construct: GH4 C1 rat pituitary tumor cells; endogenous in cells; host or cells: GH4 C1 rat pituitary tumor cells (isolated membranes)
Experimental: 1. Standard Binding Assays--Binding assays are done in a binding buffer containing 50 mM HEPES (pH 7.4), 0.5% BSA and 5 mM MgCl2. The standard assay for [^125 I]SRIF analog binding to GH4 CL membranes, done in 96 well microtiter plates (Dynatech Immulon II Removawell plates), is carried out as follows: 1. Radioligand is diluted in binding buffer+PMSF/Baci to the desired cpm per vol. of 50 μl and then 50 μl aliquots are added to the wells. For non-specific binding samples, 5 μl of 40 μM cold S14 is also added per well. 2. Binding is initiated by adding 150 μl per well of membrane diluted to the desired concentration (10-30 ug membrane protein/well) in binding buffer+PMSF/Baci. Plates are then covered with Linbro mylar plate sealers (Flow Labs) and placed on a Dynatech Microshaker II and binding is allowed to proceed at room temperature for 1-2 hours. Binding is stopped by centrifuging the plate for 15 minutes at 2,000×g. The supernatants are dumped off and membrane pellets washed once by addition of 200 μl of ice cold binding buffer, brief shaking and recentrifugation. Finally the individual wells are placed in 12×75 mm tubes and counted in an LKB Gammamaster counter (78% efficiency). Specific binding by this method is identical to that measured when free ligand is removed by rapid (3-5 seconds) filtration and washing on polyethyleneimine-coated glass fiber filters.
3. […]

[3] = test system: streptavidin (SA-agarose); assay: Binding of [^125 I]-labelled biotinyl-SRIFs (solubilized R:L complex) to immobilized streptavidin (Table 3)
Experimental: 3. Adsorption of solubilized R:L complex to streptavidin. Immobilized streptavidin (streptavidin cross-linked to 6% beaded agarose, Pierce Chemical Co.; "SA-agarose") is washed in solubilization buffer and added to the solubilized membranes as 1/30 of the final volume. This mixture is incubated with constant stirring by end-over-end rotation for 4-5 hours at 4°-10° C. Then the mixture is applied to a column and the non-bound material is washed through. Binding of radioligand to SA-agarose is determined by comparing cpm in the 100,000×g supernatant with that in the column effluent after adsorption to SA-agarose. Finally, the column is washed with 12-15 column volumes of solubilization buffer+0.15% deoxycholate:lysolecithin+1/500 (vol/vol) 100×4pase.
To compare the three biotinyl-SRIF analogs in terms of binding to streptavidin, the following experiment is done. [^125 I]Bio-SRIF analogs are bound to GH4 C1 membranes as described ("Methods: Receptor Binding Methods, 4"). All radioligands are at a concentration of 0.77×10^6 cpm/ml. For each radioligand, a control for non-specific binding is done in the presence of 1 uM cold S14. CPM bound/mg membrane protein after the binding step are as follows: [^125 I]Bio-6C-S14=755,020 (total) and 43,361 (non-specific); [^125 I]Bio-12C=S14=633,134 (total) and 39,538 (nonspecific); [^125 I]Bio-S28=1,065,512 (total) and 35,049 (nonspecific). The membrane pellets are solubilized in solubilization buffer containing 0.15% deoxycholate:lysolecithin and 0.2 mM MgCl2 as described ("Methods: Membrane Solubilization"). […] One ml samples of solubilized membranes are incubated with 0.05 ml vols of streptavidin-agarose at 4°-10° C. on a tube rotator for the times shown. Non-specific binding samples are not done due to the low levels of non-specific binding. At the times shown, the SA beads are spun down and 100 ul samples of supernatant are counted. The cpm are compared to initial cpm in the sample and % binding to SA is calculated from this. Also, it should be noted that binding of cpm from the supernatant is considered to parallel the binding of R:L complex. Several observations confirm that this is a valid assumption.
CPM are determined for 100 ul samples of initial 100,000×g supernatant (containing soluble R:L complex) and supernatant after incubation with SA-agarose for times shown.

[4] = biological target: T1, SRIF receptor (GH4 C1 membranes); assay: Binding of [^125 I] biotinyl-SRIF ligands to GH4 C1 membranes (CPM bound/mg); details: radioligand 0.77×10^6 cpm/ml
Experimental: 4. Larger scale binding assays to obtain membrane pellets for studies on solubilization of receptor:ligand complex and for receptor purification are also carried out. These are identical to the standard assays except that: (a) Binding is carried out in polypropylene tubes in volumes from 1-250 ml, with the wash step being done in the same volume as initially used for binding, (b) Concentration of membrane protein is always 0.5 mg/ml, (c) For receptor purification, BSA concentration in the binding buffer is reduced to 0.25% and the wash step is done with binding buffer without BSA. This is to reduce BSA contamination of the purified receptor.
To compare the three biotinyl-SRIF analogs in terms of binding to streptavidin, the following experiment is done. [^125 I]Bio-SRIF analogs are bound to GH4 C1 membranes as described ("Methods: Receptor Binding Methods, 4"). All radioligands are at a concentration of 0.77×10^6 cpm/ml. For each radioligand, a control for non-specific binding is done in the presence of 1 uM cold S14. […] At the times shown, the SA beads are spun down and 100 ul samples of supernatant are counted. The cpm are compared to initial cpm in the sample and % binding to SA is calculated from this. […]

[5] = GFB/PEI filters, triplicate, SE 5%
[6] = PEG precipitation, triplicate, SE 5%

T1 sequence (P30680 whole entry): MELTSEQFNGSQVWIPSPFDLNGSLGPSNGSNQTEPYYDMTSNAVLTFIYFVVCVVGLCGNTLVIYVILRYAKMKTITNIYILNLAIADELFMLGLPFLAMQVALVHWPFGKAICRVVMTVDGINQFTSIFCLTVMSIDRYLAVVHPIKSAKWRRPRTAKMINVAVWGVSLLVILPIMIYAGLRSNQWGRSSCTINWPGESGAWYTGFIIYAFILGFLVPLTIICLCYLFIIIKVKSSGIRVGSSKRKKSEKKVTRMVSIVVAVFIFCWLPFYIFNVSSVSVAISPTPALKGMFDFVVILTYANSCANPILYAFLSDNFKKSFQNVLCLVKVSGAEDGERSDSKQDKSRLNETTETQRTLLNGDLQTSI

- Initial cpm bound, nonspecific ([1]; 2 mg membrane protein in 8 ml, plus 1 uM cold S14): 0.65×10^6 cpm
- Initial cpm bound, total ([1]; 2 mg membrane protein in 8 ml, total): 1.43×10^6 cpm
- peak I (void volume) share of total cpm ([1]; 1% CHAPS, Sephadex G-50): 34 % of total cpm
- specifically bound ligand recovered, of initial specifically bound cpm on intact membranes ([1]; 1% CHAPS, Sephadex G-50 peak I): 11%
- CPM in 100,000×g supernatant, nonspecific ([1]; 1% CHAPS, plus 1 uM cold S14): 0.29×10^6 CPM
- CPM in 100,000×g supernatant, total ([1]; 1% CHAPS, total): 0.61×10^6 CPM
- Specifically bound ligand recovered (A-B) ([1]; GFB/PEI filters): 20,340 CPM
- CPM recovered, B. Nonspecific [1, 5]: 7,193 CPM
- CPM recovered, A. Total [1, 5]: 27,533 CPM
- Specifically bound ligand recovered (A-B) ([1]; PEG precipitation): 17,272 CPM
- CPM recovered, B. Nonspecific [1, 6]: 7,803 CPM
- CPM recovered, A. Total [1, 6]: 23,075 CPM
- Specifically bound ligand recovered (A-B) ([1]; Sephadex G-50): 16,840 CPM
- CPM recovered, B. Nonspecific ([1]; Sephadex G-50): 9,104 CPM
- CPM recovered, A. Total ([1]; Sephadex G-50): 23,944 CPM
- Kd [2]: 100 pM
Substance: [^125 I]Tyr11-S14: non-biotinylated radioligand, [^125 I]Tyr11-S14 (AGCKNFFWKTY(125I)TSC; ends and bridges not checked; UniProt P61278 103-116, looked up, variant F11Y)

- Kd [2]: 200 pM
- binding of solubilized R:L complex to immobilized streptavidin vs Bio-6C-S14 and Bio-12C-S14 [3]: binds somewhat better
- Initial CPM ([3]; 100 ul of initial 100,000×g supernatant): 92,534 CPM
- % Binding of radioligand to SA-agarose, 1 hour ([3]; 1 hour): 66%
- % Binding of radioligand to SA-agarose, 3 hours ([3]; 3 hours): 82%
- Non-bound CPM, 1 hour ([3]; supernatant after 1 hour with SA-agarose): 31,645 CPM
- Non-bound CPM, 3 hours ([3]; supernatant after 3 hours with SA-agarose): 17,098 CPM
- CPM bound/mg membrane protein, nonspecific ([4]; in presence of 1 uM cold S14): 35,049 CPM bound/mg membrane protein
- CPM bound/mg membrane protein, total ([4]; total): 1,065,512 CPM bound/mg membrane protein
Substance: biotinyl-NH(Leu8, D-Trp22, [^125 I]Tyr25)SRIF [[^125 I]Bio-S28]
